According to patent US11980633B2, “Method for treating cancer using a combination of DNA-damaging agents and DNA-PK inhibitors” (Vertex Pharmaceuticals Incorporated, priority 2016, dated 2024):

Columns and labels:
[1] = system: primary human pancreatic tumors; assay: TCA: Compound B-1 with gemcitabine, primary pancreatic tumors; format: cell-based
Description: (§1) In both studies, cell viability was assessed after 6 days in culture. Statistical analysis of the combination matrix was performed to assess whether synergy, additivity, or antagonism of the combination treatments were observed.
(§2) Materials: Primary patient samples (See Tables 16 and 17, below) were excised from mice when they reached 500 mg to 1000 mg in size and processed immediately, or after overnight shipment. Tumors were serially passaged by subcutaneous implantation of 50 mg to 150 mg fragments into the flanks of immunocompromised (nude) mice. Tumors were used within the first 5 or 7 passages.
(§3) Tumor Chemosensitivity Assay (TCA): Primary tumor samples were grown and serially passaged in immunocompromised mice. Tumors were mechanically dissociated into small fragments (1 mm to 2 mm) with scalpels in phosphate buffered saline (PBS or RPMI) and centrifuged at 200×g for 5 minutes at room temperature in 50 mL centrifuge tubes. Samples were resuspended in 10 mL of cell dissociation reagent and enzymatically digested with mechanical agitation for 1 to 3 hours at 37° C., 5% CO2 to a single cell suspension. Ten mL of complete RPMI-1640 media was added to the cell mixture and pipetted up and down 4 to 5 times. The mixture was then passed through a 70 μm or 100 μm mesh strainer to remove undigested tumor. The filtrate was then centrifuged 200×g for 5 minutes at room temperature and resuspended in 20 mL complete RPMI-1640. This cell suspension was slowly layered onto 20 mL of room temperature Histopaque and centrifuged at 400×g for 15 minutes at room temperature without a brake. The interface was transferred to a new 50 mL centrifuge tube and 15 mL of complete RPMI-1640 was added. This suspension was centrifuged at 200×g at room temperature, and the resulting pellet was resuspended in 10 mL of complete PC-1 media, except for pancreatic tumors in which case Pancreatic Medium was used. Cells were diluted in Trypan blue, and viable cells that excluded the dye were counted. Only the larger, tumor cells were included in the cell count. Cells were diluted in complete PC-1 or Pancreatic media, as appropriate for the cells, and were plated at 15,000 to 20,000 cells per well in 100-135 μL in ultra-low attachment U-bottom plates.
(§4) Compound Addition: For these studies, a 10 mM stock of the DNA-PK inhibitor (Compound B-1 or Compound B-2) was made in DMSO and used to add to cells from most tumors with HP D300 Digital Dispenser (Tecan US, Morrisville, NC, USA), or diluted into the appropriate media (PC-1 or pancreatic media) as a 5-10× stock and added to cells (OVX001 and ENX001, 005). PC-1, pancreatic media, and chemotherapeutics were also added so that final well volume was 150 μL. Doxorubicin was made as DMSO stock of 1 or 10 mM and added to cells for most tumors with HP D300 Digital Dispenser, or diluted into PC-1 as 5-10× stock and added to cells (OVX001 and ENX001, 005). Cisplatin (cis-diammine platinum(II), dichloride) was prepared fresh to 10 mM in warm (60° C.) distilled water and diluted in PC-1 as a 5-10× stock. […] Different starting concentrations, dose ranges, and number of doses were used for each experiment based on the response data available at the time.
(§5) For bleomycin experiments, combinations with Compound B-1 at all concentrations were run in triplicate. A 6×3 matrix was designed on one plate, consisting of a 2-point concentration range of 0.73 μM and 2.2 μM Compound B-1 plus no treatment control, in 3 columns each of 6 wells. Bleomycin (plus ‘no treatment’ control) was added to 9 wells in rows of this plate. Similar 6×3 matrices were set up for additional agents with different starting concentrations for compound dilutions. For cisplatin experiments the starting concentration was 30 μM which was diluted 1:3. […] For doxorubicin hydrochloride experiments the starting concentration was 5 μM doxorubicin which was diluted 1:3. For gemcitabine experiments the starting concentration was 5 μM gemcitabine which was diluted 1:3. […]

[2] = system: primary human tumors (esophageal, gastric); assay: TCA: Compound B-1 with carboplatin, primary tumors; format: cell-based
Description: as §1, §2, §3, §4, §5

## CNC(=O)c1ccnc2c([C@H](C)CNc3cc(-c4cnc(C)nc4)ncn3)cccc12 [Compound B-1]
[1]; 2 of 4 pancreatic tumors
  tumors that showed additivity: 50%
  tumors that showed antagonism: 50%
[1]; tumor P110325, Pancreatic
  Average Bliss score: −9
  Synergy/Additivity/Antagonism: Antagonistic (less than −5 are considered antagonistic)
[1]; tumor P110413, Pancreatic
  Average Bliss score: −1
  Synergy/Additivity/Antagonism: Additive (Values between 5 and −5 are considered additive)
[1]; tumor P110504, Pancreatic
  Average Bliss score: −6
  Synergy/Additivity/Antagonism: Antagonistic (less than −5 are considered antagonistic)
[1]; tumor P110603, Pancreatic
  Average Bliss score: −2
  Synergy/Additivity/Antagonism: Additive (Values between 5 and −5 are considered additive)
[2]; 5 tumors
  tumors that showed synergy or additivity: 100%
[2]; tumor ESX005, Esophageal
  Average Bliss score: 3
  Synergy/Additivity/Antagonism: Additive (Values between 5 and −5 are considered additive)
[2]; tumor ESX008, Esophageal
  Average Bliss score: 5
  Synergy/Additivity/Antagonism: Synergistic (greater than 5 are considered synergistic)
[2]; tumor GAX001, Gastric
  Average Bliss score: 2
  Synergy/Additivity/Antagonism: Additive (Values between 5 and −5 are considered additive)
[2]; tumor GAX007, Gastric
  Average Bliss score: 4
  Synergy/Additivity/Antagonism: Additive (Values between 5 and −5 are considered additive)
[2]; tumor GAX027, Gastric
  Average Bliss score: 4
  Synergy/Additivity/Antagonism: Additive (Values between 5 and −5 are considered additive)
